Values of other authors, collected in US20150191797A1, “SYSTEMS AND METHODS FOR DIAGNOSING A PREDISPOSITION TO COLON CANCER” (Institute for Cancer Research d/b/a The Research Institute …, priority 2012, published 2015).

Test system: Werner cells
Details: camptothecin doses of 20-50 nM

In the case of CC[C@@]1(O)C(=O)OCc2c1cc1n(c2=O)Cc2cc3ccccc3nc2-1 [Camptothecin, camptothecin], the “effect on cell cycle” value is given as “S phase delay” and the increase in apoptosis is given as 5-6 fold.
